Laboratory results from article PMC4307180, “Overcoming myelosuppression due to synthetic lethal toxicity for FLT3-targeted acute myeloid leukemia therapy” (eLife, 2014).
“Also recorded” adds a separate entry of the source.

Key:
[1] = target: T1, FLT3 (Homo sapiens, UniProt P36888); test: Reaction Biology Corp kinase assay at Km-ATP (Figure 1C), FLT3
T1 sequence (P36888 27-993): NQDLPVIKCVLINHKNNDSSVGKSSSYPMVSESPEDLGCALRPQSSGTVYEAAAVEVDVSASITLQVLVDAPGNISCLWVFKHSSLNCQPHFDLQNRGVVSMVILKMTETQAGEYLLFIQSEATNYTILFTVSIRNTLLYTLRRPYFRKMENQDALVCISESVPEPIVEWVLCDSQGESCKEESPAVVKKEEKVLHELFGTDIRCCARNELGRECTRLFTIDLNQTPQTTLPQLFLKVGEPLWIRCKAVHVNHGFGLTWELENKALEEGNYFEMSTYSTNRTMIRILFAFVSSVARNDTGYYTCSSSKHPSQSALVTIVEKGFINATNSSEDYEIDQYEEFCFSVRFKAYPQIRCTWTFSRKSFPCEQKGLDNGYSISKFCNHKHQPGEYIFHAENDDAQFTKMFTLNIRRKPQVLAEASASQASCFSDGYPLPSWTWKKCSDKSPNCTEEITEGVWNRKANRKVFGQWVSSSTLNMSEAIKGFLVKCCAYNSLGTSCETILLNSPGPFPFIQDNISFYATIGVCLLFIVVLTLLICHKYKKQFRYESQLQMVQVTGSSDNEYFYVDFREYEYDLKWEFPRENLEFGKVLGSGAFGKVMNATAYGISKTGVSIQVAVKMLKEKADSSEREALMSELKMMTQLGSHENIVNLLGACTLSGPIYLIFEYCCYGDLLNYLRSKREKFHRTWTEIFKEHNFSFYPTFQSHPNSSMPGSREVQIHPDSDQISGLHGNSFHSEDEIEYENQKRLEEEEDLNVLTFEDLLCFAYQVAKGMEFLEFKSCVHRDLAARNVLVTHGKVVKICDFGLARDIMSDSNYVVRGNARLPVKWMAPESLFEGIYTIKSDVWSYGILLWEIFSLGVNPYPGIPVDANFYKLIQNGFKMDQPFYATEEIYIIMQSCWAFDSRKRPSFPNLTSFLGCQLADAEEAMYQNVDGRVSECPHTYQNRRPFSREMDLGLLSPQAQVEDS

[2] = tested on: Ba/F3 FLT3 ITD + D835H; test: Ba/F3 cell viability, FLT3 ITD + D835H; type: cell-based; settings: Mus musculus, Ba/F3, 48 hr, ± SEM
Protocol: (§1) Stable Ba/F3 lines were generated by retroviral spinfection with the appropriate mutated plasmid as previously described ([Smith et al., 2012]).
(§2) Exponentially growing cells (5 × 10^3 cells per well) were plated in each well of a 96-well plate with 0.1 ml of RPMI 1640 + 10% (vol/vol) FCS containing the appropriate concentration of drug in triplicate, and cell viability was assessed after 48 hr as previously described ([Smith et al., 2012]). […] Log10-scale transformation of ratios, followed by conditional formatting using xcel spreadsheet software yielded the colored diagrams shown.
(§3) Mutations isolated in the screen were engineered into pMSCVpuroFLT3–ITD by QuikChange mutagenesis (Stratagene, La Jolla, CA) as previously described ([Smith et al., 2012]).

[3] = tested on: HMC1.1 cells; test: Caspase-3 activation (apoptosis), HMC1.1; type: cell-based, human; settings: 48 hr, up to 2,500 nM
Protocol: Cells were fixed with 4% (vol/vol) paraformaldehyde (Electron Microscopy Sciences) and permeabilized with 100% (vol/vol) methanol (Electron Microscopy Sciences, Hatfield, PA) followed by staining with a FITC-conjugated antiactive caspase-3 antibody (BD Pharmingen, San Jose, CA). Cells were run on a BD LSRFortessa cell analyzer, and data were analyzed using FlowJo (Tree Star Inc., Ashland, OR). Percentage of live cells was determined by negative staining for activated caspase-3 (see Figure 2B,C).

[4] = tested on: Ba/F3 FLT3 ITD + D698N; test: Ba/F3 cell viability, FLT3 ITD + D698N; type: cell-based; settings: Mus musculus, Ba/F3, 48 hr, ± SEM
Protocol: as §1, §2, §3

[5] = tested on: Ba/F3 FLT3 ITD + D835Y; test: Ba/F3 cell viability, FLT3 ITD + D835Y; type: cell-based; settings: Mus musculus, Ba/F3, 48 hr, ± SEM
Protocol: as §1, §2, §3

[6] = tested on: Ba/F3 Parental + IL3; test: Ba/F3 cell viability, Parental + IL3; type: cell-based; settings: Mus musculus, BaF3; Ba/F3, 48 hr, ± SEM
Protocol: as §1, §2

CC1NC(=O)c2c1c1c3ccccc3n(CCCN)c1c1[nH]c3ccccc3c21 (stereo not drawn) [Star 27]
IC50 [1]: < 0.6 nM | IC50 [2]: 48 ± 29 nM | apoptosis/toxicity (caspase-3) in KIT-addicted HMC1.1 cells [3]: very little up to 2,500 nM; also recorded: minimal apoptosis | IC50 [4]: 174 ± 44 nM | IC50 [5]: 39 ± 24 nM | IC50 [6]: 2300 nM
